Assay [1] deals with Focal Adhesion Kinase (FAK) (Homo sapiens, UniProt Q05397). The assay can be described thus: FAK assay system (Focal Adhesion Kinase inhibition). It counts as biochemical.
For another assay, the target named is IGF-IR (Homo sapiens, UniProt P08069). The assay can be described thus: Cellular Capture ELISA of IGF-I induced autophosphorylation of the IGF-IR. The settings on record: read-out: IGF-1R IC50. It counts as cell-based. On the procedure: In this assay the activity of the compounds of the invention against Insulin-like growth factor I (IGF-I) induced autophosphorylation of the IGF-IR is determined.
Chain of IGF-IR (P08069 31-1367): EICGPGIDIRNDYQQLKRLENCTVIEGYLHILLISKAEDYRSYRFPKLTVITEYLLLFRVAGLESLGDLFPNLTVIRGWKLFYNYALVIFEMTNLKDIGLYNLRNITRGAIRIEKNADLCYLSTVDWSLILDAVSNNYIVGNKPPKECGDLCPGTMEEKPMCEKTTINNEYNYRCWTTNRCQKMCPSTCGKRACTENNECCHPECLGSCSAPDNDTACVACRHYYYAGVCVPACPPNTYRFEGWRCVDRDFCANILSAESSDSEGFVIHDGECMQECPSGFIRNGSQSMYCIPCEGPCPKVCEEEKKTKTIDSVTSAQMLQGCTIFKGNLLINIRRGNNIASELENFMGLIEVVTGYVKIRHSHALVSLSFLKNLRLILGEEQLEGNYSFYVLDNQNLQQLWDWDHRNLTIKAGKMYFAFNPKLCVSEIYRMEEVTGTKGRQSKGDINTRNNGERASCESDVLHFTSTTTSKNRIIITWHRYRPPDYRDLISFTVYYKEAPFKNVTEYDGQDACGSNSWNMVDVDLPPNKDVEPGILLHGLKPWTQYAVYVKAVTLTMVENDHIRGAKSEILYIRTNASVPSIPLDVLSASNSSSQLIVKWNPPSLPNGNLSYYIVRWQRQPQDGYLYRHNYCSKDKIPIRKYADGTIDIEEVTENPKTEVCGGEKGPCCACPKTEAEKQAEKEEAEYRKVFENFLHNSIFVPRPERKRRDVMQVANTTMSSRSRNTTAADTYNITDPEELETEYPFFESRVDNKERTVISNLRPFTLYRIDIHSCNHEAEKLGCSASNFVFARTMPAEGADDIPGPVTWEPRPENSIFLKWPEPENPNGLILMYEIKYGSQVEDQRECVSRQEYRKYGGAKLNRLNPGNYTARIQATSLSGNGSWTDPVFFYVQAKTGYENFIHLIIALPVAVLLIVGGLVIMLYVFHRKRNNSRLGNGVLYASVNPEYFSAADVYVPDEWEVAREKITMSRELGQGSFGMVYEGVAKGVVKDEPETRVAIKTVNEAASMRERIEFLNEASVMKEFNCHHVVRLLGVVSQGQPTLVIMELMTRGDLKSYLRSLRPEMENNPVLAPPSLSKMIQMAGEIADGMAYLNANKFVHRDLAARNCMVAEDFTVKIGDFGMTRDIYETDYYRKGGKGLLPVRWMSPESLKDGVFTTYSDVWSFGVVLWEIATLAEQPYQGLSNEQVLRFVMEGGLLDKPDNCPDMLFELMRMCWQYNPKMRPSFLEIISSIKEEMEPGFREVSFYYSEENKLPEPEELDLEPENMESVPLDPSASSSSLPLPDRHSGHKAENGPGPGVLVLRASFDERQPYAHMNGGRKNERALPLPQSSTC
(In general: An ELISA detects its analyte on a solid surface through an enzyme-linked reagent.)

Assay [2] deals with Mouse mammary carcinoma 4T1 cells. Briefly: Anchorage-independent tumor cell growth assay. It counts as cell-based. On the procedure: Cells are cultured for 2 h and inhibitors are added at various concentrations in a final concentration of 0.1% DMSO. After 48 h, cell growth is assayed with the cell counting kit-8 (Wako Pure Chemical), which uses a water soluble tetrazolium salt WST8. Twenty μL of the reagent is added into each well and cells are further cultured for 2 h. The optical density is measured at 450 nm.

Another assay deals with FAK (Mus musculus, UniProt P34152). Briefly: Phos IC50 (phosphorylation). It counts as cell-based.
Chain of FAK (P34152 2-1052): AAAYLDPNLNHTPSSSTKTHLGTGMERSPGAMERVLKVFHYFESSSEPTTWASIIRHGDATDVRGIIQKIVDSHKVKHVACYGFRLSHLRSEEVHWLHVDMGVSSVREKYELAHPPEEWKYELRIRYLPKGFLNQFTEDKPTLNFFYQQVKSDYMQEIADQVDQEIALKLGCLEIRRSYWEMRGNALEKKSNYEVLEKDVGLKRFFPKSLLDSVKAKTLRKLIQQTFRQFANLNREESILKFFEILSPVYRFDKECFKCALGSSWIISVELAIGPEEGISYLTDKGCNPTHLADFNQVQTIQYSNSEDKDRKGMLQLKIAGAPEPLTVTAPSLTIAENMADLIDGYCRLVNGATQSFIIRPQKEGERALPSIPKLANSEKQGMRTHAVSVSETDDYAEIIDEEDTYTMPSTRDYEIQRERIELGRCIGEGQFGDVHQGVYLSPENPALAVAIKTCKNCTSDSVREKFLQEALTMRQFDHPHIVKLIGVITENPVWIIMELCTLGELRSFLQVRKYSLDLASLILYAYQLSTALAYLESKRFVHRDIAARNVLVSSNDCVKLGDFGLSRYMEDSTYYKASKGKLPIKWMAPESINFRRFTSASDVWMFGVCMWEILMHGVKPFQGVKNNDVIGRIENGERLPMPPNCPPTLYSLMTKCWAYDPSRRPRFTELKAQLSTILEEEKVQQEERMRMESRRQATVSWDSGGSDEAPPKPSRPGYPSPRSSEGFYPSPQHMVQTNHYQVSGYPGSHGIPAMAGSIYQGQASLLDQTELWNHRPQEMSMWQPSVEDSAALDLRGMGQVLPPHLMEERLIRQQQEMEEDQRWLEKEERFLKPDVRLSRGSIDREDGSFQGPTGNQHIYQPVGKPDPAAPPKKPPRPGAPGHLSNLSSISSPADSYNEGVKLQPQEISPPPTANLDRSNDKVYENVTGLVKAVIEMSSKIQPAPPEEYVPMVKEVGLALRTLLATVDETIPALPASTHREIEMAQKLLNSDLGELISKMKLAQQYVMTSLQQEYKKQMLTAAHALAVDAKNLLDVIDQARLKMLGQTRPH
Another assay concerns T Cell. Briefly: T Cell Migration. Format: cell-based.

Molecules are shown by their SMILES. pIC50: −log10 of the molar value. Like-named read-outs stand apart in the source and are kept apart here.

Chain of Focal Adhesion Kinase (FAK) (Q05397 384-706): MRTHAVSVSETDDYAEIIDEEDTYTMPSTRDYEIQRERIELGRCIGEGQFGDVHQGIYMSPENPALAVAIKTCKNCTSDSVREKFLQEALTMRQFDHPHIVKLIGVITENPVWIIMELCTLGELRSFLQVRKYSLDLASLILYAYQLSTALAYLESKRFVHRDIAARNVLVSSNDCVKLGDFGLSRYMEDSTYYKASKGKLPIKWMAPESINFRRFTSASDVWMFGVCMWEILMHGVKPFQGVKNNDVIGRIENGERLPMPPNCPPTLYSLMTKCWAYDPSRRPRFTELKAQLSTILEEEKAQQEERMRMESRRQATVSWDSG

For the compound `CNS(=O)(=O)c1ccccc1Nc1nc(Nc2cc(N3CCOCC3)ccc2OC)ncc1Br` [Example 3-32], the pIC50 (commonly −log10 of the IC50, conventionally taken in molar units) in assay [1] (read-out: FAK IC50) is 7.85; at IGF-IR, 6.92; in assay [2] (Mus musculus, 4T1), 6.31; at FAK, 6.74; with T Cell (T-cell), 6.55.
In the same order, the values of `CNS(=O)(=O)c1ccccc1Nc1nc(Nc2ccc(OC3CCN(C)CC3)cc2OC)ncc1Br` [Example 3-33] are 8.54, 6.89, 7.30, 7.52 and 7.05.
In the same order, the values of `CNS(=O)(=O)c1ccccc1Nc1nc(Nc2cc(OCCN3CCOCC3)ccc2OC)ncc1Br` [Example 3-35] are 7.89, 5.45, 6.77, 7.70 and 6.10.
The like results for `CNS(=O)(=O)c1ccccc1Nc1nc(Nc2ccc(N3CCN(C)CC3)cc2OC)ncc1Br` [Example 3-39] were, in that order, 8.70, 7.05, 7.52, 7.70 and 6.00.
In the case of `CNS(=O)(=O)c1ccccc1Nc1nc(Nc2ccc(N3CCN(C(C)=O)CC3)cc2OC)ncc1Br` [Example 3-46], the pIC50 in assay [1] (read-out: FAK IC50) was 8.40; in assay [2] (Mus musculus, 4T1), 6.74; against FAK, 7.00; in the assay on T Cell (T-cell) it was 6.52.
The like results for `CNS(=O)(=O)c1ccccc1Nc1nc(Nc2cc(N(C)C)ccc2OC)ncc1Br` [Example 3-64] were, in that order, 8.30, 6.15, 6.89 and 6.68.
As to `CNS(=O)(=O)c1ccccc1Nc1nc(Nc2cc(N3CCC(N4CCCCC4)CC3)ccc2OC)ncc1Br` [Example 3-69], the pIC50 in assay [1] (read-out: FAK IC50) is 8.40; in assay [2] (Mus musculus, 4T1) it was 6.96; against FAK, 6.70; in the assay with T Cell (T-cell) it was 6.24.
The like results for `CNS(=O)(=O)c1ccccc1Nc1nc(Nc2cc(OC3CCN(C)CC3)ccc2OC)ncc1Br` [Example 3-76] were, in that order, 7.82, 5.89, 6.54 and 6.15.
The like results for `CNC(=O)c1ccccc1Nc1nc(Nc2cc(N3CCOCC3)ccc2OC)ncc1Cl` [Example 7-6] were, in that order, 7.77, 5.96, 6.10 and 6.60.
Consider `CNC(=O)c1ccccc1Nc1nc(Nc2ccc(N3CCC(NC)C3)cc2OC)ncc1Cl` (centres unmarked) [Example 7-12], for which the pIC50 was 8.72 in assay [1] (read-out: FAK IC50); 6.21 on IGF-IR; 6.00 in assay [2] (Mus musculus, 4T1); 6.05 on FAK; 6.51 with T Cell (T-cell).
Turning to `CNC(=O)c1ccccc1Nc1nc(Nc2ccc(N3CCOCC3)cc2OC)ncc1Cl` [Example 7A, 2-[5-Chloro-2-(2-methoxy-4-morpholin-4-yl-phenylamino)-pyrimidin-4-ylamino]-N-methyl-benzamide], the pIC50 is 6.33 in assay [2] (Mus musculus, 4T1); 6.68 against FAK; 7.40 in the assay with T Cell (T-cell).
As to `CCNC(=O)c1ccccc1Nc1nc(Nc2ccc(N3CCOCC3)cc2OC)ncc1Cl` [Example 9-1], the negative-log IC50 (pIC50) in assay [1] (read-out: FAK IC50) was 7.66; in assay [2] (Mus musculus, 4T1), 6.00; at FAK, 6.44; with T Cell (T-cell), 6.22.
With `CCNC(=O)c1ccccc1Nc1nc(Nc2ccc(OC3CCN(C)CC3)cc2OC)ncc1Cl` [Example 9-6], the negative-log IC50 (pIC50) in assay [1] (read-out: FAK IC50) is 7.64; in assay [2] (Mus musculus, 4T1), 6.40; at FAK it was 5.52; in the assay with T Cell (T-cell), 6.52.
`COc1cc(N2CCOCC2)ccc1Nc1ncc(Cl)c(Nc2cccc3c2C(=O)N(C)C3)n1` [Example 12-1, 7-[5-Chloro-2-(2-methoxy-4-morpholin-4-yl-phenylamino)-pyrimidin-4-ylamino]-2-methyl-2,3-dihydro-isoindol-1-one]: the pIC50 in assay [1] (read-out: FAK IC50) was 8.60; in assay [2] (Mus musculus, 4T1), 6.40; on FAK, 7.05; in the assay on T Cell (T-cell) it was 6.66.
The like results for `COc1cc(N2CCOCC2)ccc1Nc1ncc(Cl)c(Nc2ccccc2C(=O)N(C)C)n1` [Example 14-1] were, in that order, 7.72, 5.83, 6.70 and 6.55.
In the same order, the values of `COc1cc(N2CCOCC2)ccc1Nc1ncc(Cl)c(Nc2ccccc2C(=O)NC(C)C)n1` [Example 14-2] are 6.72, 5.96, 5.70 and 6.00.
As to `CNC1CCN(c2ccc(Nc3ncc(Cl)c(Nc4ccccc4S(=O)(=O)NC(C)C)n3)c(OC)c2)C1` (centres unmarked) [Example 19-1], the negative logarithm of the IC50 (pIC50) was above 9.00 in assay [1] (read-out: FAK IC50); 5.85 at IGF-IR; 6.52 in assay [2] (Mus musculus, 4T1); 6.70 on FAK; 6.54 with T Cell (T-cell).
For `COc1cc(N2CCN(C)CC2)ccc1Nc1ncc(Cl)c(Nc2ccccc2S(=O)(=O)NC(C)C)n1` [Example 19-5], the pIC50 was 8.74 in assay [1] (read-out: FAK IC50), 6.17 in assay [2], 6.70 against FAK and 7.15 in the assay with T Cell.
Consider `COc1cc(N2CCOCC2)ccc1Nc1ncc(Cl)c(Nc2ccccc2S(=O)(=O)NC(C)C)n1` [Example 19-8], for which the pIC50 in assay [1] (read-out: FAK IC50) was 8.49; at IGF-IR it was 6.89; in assay [2] (Mus musculus, 4T1), 6.40; on FAK, 7.52; in the assay with T Cell (T-cell) it was 6.54.
Regarding `COc1cc(N2CCC(N(C)C)C2)ccc1Nc1ncc(Cl)c(Nc2ccccc2S(=O)(=O)NC(C)C)n1` (centres unmarked) [Example 19-9], the negative-log IC50 (pIC50) in assay [1] (FAK IC50) is 8.89; on IGF-IR, 6.32; in assay [2] (Mus musculus, 4T1), 6.41; in the assay on T Cell (T-cell) it was 6.52.
As for `CC(C)NS(=O)(=O)c1ccccc1Nc1nc(Nc2ccc(OC3CCN(C)CC3)cc2F)ncc1Cl` [Example 19-28], the negative-log IC50 (pIC50) was 8.32 in assay [1] (read-out: FAK IC50); 6.34 on IGF-IR; 6.92 in assay [2] (Mus musculus, 4T1); 7.00 on FAK; 6.52 in the assay with T Cell (T-cell).
In the same order, the values of `CNS(=O)(=O)c1ccccc1Nc1nc(Nc2ccc(N3CCOCC3)cc2OC)ncc1Cl` [Example 20-1] are 8.00, 6.15, 6.74, 6.52 and 6.60.
In the same order, the values of `CNS(=O)(=O)c1ccccc1Nc1nc(Nc2ccc(N3CCN(C(C)=O)CC3)cc2OC)ncc1Cl` [Example 20-2] are 8.05, 6.28, 6.77, 6.92 and 6.12.
For `CNS(=O)(=O)c1ccccc1Nc1nc(Nc2ccc(N3CCN(C)CC3)cc2OC)ncc1Cl` [Example 20-6], the pIC50 in assay [1] (read-out: FAK IC50) was 8.30; in assay [2] (Mus musculus, 4T1) it was 6.85; at FAK it was 6.44; in the assay with T Cell (T-cell) it was 4.31.
On to `CCC(CC)NS(=O)(=O)c1ccccc1Nc1nc(Nc2ccc(OC3CCN(C)CC3)cc2OC)ncc1Cl` [Example 23-1], for which the pIC50 is 8.47 in assay [1] (read-out: FAK IC50); 6.28 on IGF-IR; 6.70 in assay [2] (Mus musculus, 4T1); 6.22 against FAK; 6.20 in the assay on T Cell (T-cell).
In the same order, the values of `CCCS(=O)(=O)c1ccccc1Nc1nc(Nc2ccc(N3CCN(C(C)=O)CC3)cc2OC)ncc1Cl` [Example 26-2] are 8.72, 6.41, 6.92, 7.52 and 7.05.
In the case of `CCCS(=O)(=O)c1ccccc1Nc1nc(Nc2ccc(N3CCN(C(C)=O)C(C)(C)C3)cc2OC)ncc1Cl` [Example 26-11], the negative-log IC50 (pIC50) in assay [1] (read-out: FAK IC50) is 8.36; in assay [2] (Mus musculus, 4T1), 6.11; on FAK, 6.40; in the assay on T Cell (T-cell), 6.30.
In the case of `CCCS(=O)(=O)c1ccccc1Nc1nc(Nc2cc(N3CCOCC3)ccc2OC)ncc1Cl` [Example 26-17], the pIC50 in assay [1] (read-out: FAK IC50) was 7.77; in assay [2] (Mus musculus, 4T1), 7.00; on FAK it was 6.52; with T Cell (T-cell), 6.59.
For the compound `CCCS(=O)(=O)c1ccccc1Nc1nc(Nc2ccc(N3CCC(N(C)C)C3)cc2OC)ncc1Cl` (centres unmarked) [Example 26-24], the pIC50 in assay [1] (read-out: FAK IC50) is 9.00; in assay [2] it was 6.32; against FAK it was 6.30; with T Cell, 6.05.
For `COc1cc(N2CCC(N3CCOCC3)CC2)ccc1Nc1ncc(Cl)c(Nc2ccccc2S(=O)(=O)C(C)C)n1` [Example 28-13], the pIC50 is 8.11 in assay [1] (read-out: FAK IC50); 6.26 in assay [2] (Mus musculus, 4T1); 7.00 against FAK; 6.54 with T Cell (T-cell).
In the same order, the values of `COc1cc(N2CCC(O)CC2)ccc1Nc1ncc(Cl)c(Nc2ccccc2S(=O)(=O)C(C)C)n1` [Example 28-16] are 7.96, 6.00, 6.96 and 6.22.
In the same order, the values of `COc1cc(N2CCC[C@H](C(N)=O)C2)ccc1Nc1ncc(Cl)c(Nc2ccccc2S(=O)(=O)C(C)C)n1` [Example 28-27] are 8.62, 6.38, 6.52 and 6.30.
In the same order, the values of `COc1cc(N2CCC[C@@H](C(N)=O)C2)ccc1Nc1ncc(Cl)c(Nc2ccccc2S(=O)(=O)C(C)C)n1` [Example 28-28] are 8.28, 6.28, 6.40 and 6.00.
